We go through one compound from article PMC5776081, “The Stoichiometric Interaction of the Hsp90-Sgt1-Rar1 Complex by CD and SRCD Spectroscopy” (Frontiers in Molecular Biosciences, 2018).

This test concerns the target T1, Rar1 (Arabidopsis thaliana, UniProt Q9SE33).
T1 sequence (Q9SE33 1-226): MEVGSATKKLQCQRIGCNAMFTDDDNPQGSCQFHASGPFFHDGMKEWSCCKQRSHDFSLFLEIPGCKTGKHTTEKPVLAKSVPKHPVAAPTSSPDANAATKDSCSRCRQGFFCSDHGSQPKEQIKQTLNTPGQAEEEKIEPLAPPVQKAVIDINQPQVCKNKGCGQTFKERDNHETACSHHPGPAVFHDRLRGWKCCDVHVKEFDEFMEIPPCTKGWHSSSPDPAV
Nature of the test: near-UV CD titration, non-linear fit at […] nm. The conditions noted are these: 4 °C; 1:1 site; authors call it weak non-specific binding; apparent Kd.

Turning to `Nc1ncnc2c1ncn2[C@@H]1O[C@H](COP(=O)(O)OP(=O)(O)O)[C@@H](O)[C@H]1O` [ADP], the Kd was found to be 2000 µM.
